In general, IC50 refers to the concentration that gives 50% inhibition. Read a high IC50 as a need for much substance.

“And” between values parts separate entries of the source, which are not always exact repeats. Equal entries are not always repeated. Where only a bound is given, the exact number is not on record here.

The target in this experiment is SARS-CoV-2 Main Protease (SARS-CoV-2) (UniProt P0DTD1).
The compound `Cn1c(CNCC2(C(=O)Nc3cncc4ccccc34)CCOc3ccc(Cl)cc32)nc2c1c(=O)[nH]c(=O)n2C` (configuration not stated) had an IC50 greater than 99.5 µM.

`CCS(=O)(=O)N1Cc2ccc(Cl)cc2C(C(=O)Nc2cncc3ccccc23)C1` (configuration not stated) yielded an IC50 of 0.242 µM.

`Cc1ccncc1NC(=O)C(C)c1cc(Cl)cc(OC2CC(=O)N2)c1` (configuration not stated) came in with an IC50 of 77.1 µM.

Compound `Cc1ccncc1NC(=O)Cc1cc(Cl)cc(-c2cnn(C)c2C(F)F)c1` showed an IC50 of 19.3 µM.

As to `O=C(Nc1cncc2cc(F)ccc12)[C@@H]1CCS(=O)(=O)c2ccc(Cl)cc21` (stereo in doubt), the IC50 stood at 0.294 µM.

Regarding `Cc1ccncc1N(CC#N)C(=O)Cc1cccc(Cl)c1`, the IC50 was greater than 99.5 µM.

`O=C(NCCc1cccc(F)c1)C(c1cccnc1)N(C(=O)c1ccco1)c1ccc(C2CCCC2)cc1` (configuration not stated) showed an IC50 of 0.282 µM.

Take `C=CC(=O)N(c1ccc2ncsc2c1)C(C(=O)Nc1cccc(CC)c1)c1cccnc1` (configuration not stated): the half-maximal inhibitory concentration (IC50) is 63.3 µM and 55 µM.

Take `CC(C)NS(=O)(=O)N1Cc2ccc(Cl)cc2C(C(=O)Nc2cncc3ccccc23)C1` (configuration not stated): the IC50 was 0.195 µM.

`O=C(Cc1cc(Cl)cc(N2CCN(c3ccccc3O)CC2)c1)Nc1cncc2ccccc12` gave an IC50 of 1.85 µM.

`O=C(NCCc1cccc(F)c1)C(c1cccnc1)N(C(=O)c1cocn1)C1CCCOC1` (configuration not stated) returned an IC50 greater than 99.5 µM.

`O=C(Nc1cncc2ccncc12)[C@H]1CCOc2cc(F)c(Cl)cc21` (stereo in doubt) returned an IC50 greater than 99.5 µM.

For `CN(Cc1nnc2ccccn12)C(=O)c1ccnc2ccccc12`, the IC50 is greater than 99.5 µM.

The compound `CCOC(=O)/C=C/N1CCN(S(=O)(=O)c2ccccc2)CC1` came in with an IC50 of 30 µM.

The compound `CNC(=O)CN1Cc2ccc(Cl)cc2C2(CCN(c3cncc4c3CCCC4)C2=O)C1` (configuration not stated) displayed an IC50 of 0.258 µM.

The compound `O=C(NCCNc1ccccc1)c1cc(=O)[nH]c2ccccc12` returned an IC50 greater than 99.5 µM.

The compound `CC(C)(C)c1ccc(N(C(=O)c2ccco2)C(C(=O)NCCc2cccc(F)c2)c2[nH]nc3ccccc23)cc1` (configuration not stated) displayed an IC50 greater than 99.5 µM.

`NS(=O)(=O)CCc1ccccc1CN1CCN(C(=O)CCl)CC1` showed an IC50 of 2.72 µM.

In turn, `C[C@H]1C[C@H](C(=O)Nc2cncc3ccccc23)c2cc(Cl)ccc2O1` (stereo in doubt) had an IC50 of 52.1 µM.

`Cc1cc(=O)oc2cc(Nc3cc(Cl)cc(CC(=O)Nc4cncc5ccccc45)c3)ccc12` came in with an IC50 of 2.12 µM.

Regarding `O=C(Cc1cncnc1)Nc1cc(F)cc(OC2CC(=O)N2)c1` (configuration not stated), the IC50 is 24.6 µM and 25.3 µM.

As to `CCN(C)S(=O)(=O)N1Cc2ccc(Cl)cc2C2(CCN(c3cncc4ccccc34)C2=O)C1` (configuration not stated), the IC50 amounted to 0.563 µM.

The compound `COCCNC(=O)[C@@H](c1ccccc1)N1Cc2ccccc2C1=O` (stereo in doubt) displayed an IC50 greater than 99.5 µM.

Compound `Cc1ccn2ncc(C(=O)Nc3ccc4[nH]c(C)cc(=O)c4c3)c2n1` had an IC50 greater than 99.5 µM.

`O=C1NC[C@@H](C(=O)Nc2cncc3ccccc23)c2cc(Cl)ccc21` (stereo in doubt): the IC50 was 99.3 µM.

Compound `COC1(CS(=O)(=O)N2CC(C(=O)Nc3cncc4cc(S(C)(=O)=O)ccc34)c3cc(Cl)ccc3C2=O)CC1` (configuration not stated) came in with a 50% inhibitory concentration (IC50) of 0.773 µM.

`O=C(CCl)N1CCN(S(=O)(=O)c2ccsc2)CC1` returned an IC50 of 1.63 µM.

Regarding `O=C(c1cc(F)cc(F)c1)N1CCOc2cc(O)ccc2C1`, the IC50 is greater than 99.5 µM.

In the case of `O=C(Cc1cc(Cl)cc(Nc2ccc(Br)nc2)c1)Nc1cncc2ccccc12`, the IC50 was determined as 1.94 µM.

Turning to `CC(NC(=O)Nc1ccn2ccnc2c1)c1ccc2[nH]c(=O)oc2c1` (configuration not stated), the IC50 was greater than 99.5 µM.

For `Cc1cccc(CC2CCN(C(=O)CCl)CC2)c1`, the IC50 is 14.7 µM.

`O=C(NCCc1cccc(F)c1)C(c1cccnc1)N(C(=O)c1cnc[nH]1)C1CCC2(CCO2)CC1` (configuration not stated): the IC50 is greater than 99 µM.

For `CCCOc1c(Cl)cc(C(=O)N2CCC(C3CCNC3)CC2)cc1OCC` (configuration not stated), the IC50 was greater than 99.5 µM.

Turning to `CC1(C)Cc2cccc(OCCNC(=O)c3cc(=O)[nH]c4cc(F)ccc34)c2O1`, the IC50 was greater than 99.5 µM.

In turn, `Cc1cccc(C2CN(C(=O)CCl)Cc3ccccc32)c1` (configuration not stated) had a half-inhibitory concentration (IC50) of 2 µM.

On to `CO[C@@H]1COC[C@H]1n1cc(C(=O)N(c2ccc(C(C)(C)C)cc2)C(C(=O)NCCc2cccc(F)c2)c2cccnc2)nn1` (stereo in doubt), for which the IC50 was greater than 99.5 µM.

For `O=C(OCC(=O)N1CCC(Cc2ccccc2)CC1)c1cc(=O)[nH]c(=O)[nH]1`, the IC50 was greater than 99.5 µM.

As to `CC(=O)NCc1cc(Cl)cc(CC(=O)Nc2cnccc2C)c1`, the IC50 came to 41.3 µM.

With `CN(C)S(=O)(=O)N1Cc2ccc(Cl)cc2C(C(=O)Nc2cnccc2C(F)(F)F)C1` (configuration not stated), the IC50 stood at 28.8 µM.

Regarding `Cc1cc(Nc2cc(Cl)cc(CC(=O)Nc3cncc4ccccc34)c2)cnc1Br`, the IC50 came out at 1.95 µM.

As for `O=C(Cc1cc(Cl)cc(Nc2cc(Cl)c(Br)cn2)c1)Nc1cncc2ccccc12`, the IC50 stood at 1.97 µM.

With `O=C(CCl)N1CCN(S(=O)(=O)c2cccc(F)c2)CC1`, the IC50 is 4.1 µM and 5.05 µM and 2.38 µM.

Compound `N#CC1(CS(=O)(=O)N2Cc3ccc(Cl)cc3C3(CCN(c4cncc5cc(F)cc(Cl)c45)C3=O)C2)CC1` (configuration not stated) came in with an IC50 of 23.8 µM.

The compound `N#Cc1cnn(-c2ccc([N+](=O)[O-])cc2)c1Nc1cc(Cl)cc(CC(=O)Nc2cncc3ccccc23)c1` registered an IC50 of 1.84 µM.

Consider `CC(CCc1ccccc1)N1CCN(C(=O)CCl)CC1` (configuration not stated), for which the half-inhibitory concentration (IC50) was found to be 20.3 µM.

Compound `O=C(Cc1cc(Cl)cc(Nc2ccc(N3CCOCC3=O)cc2)c1)Nc1cncc2ccccc12` registered an IC50 of 1.99 µM.

Consider `O=C(NC[C@@]1(C(=O)Nc2cncc3ccccc23)CCOc2ccc(Cl)cc21)[C@]1(O)CCSC1` (stereo in doubt), for which the IC50 is 1.94 µM.

`Cn1ccc2cc(N(C(=O)c3cnc[nH]3)C(C(=O)NCCc3cccc(F)c3)c3cccnc3)ccc21` (configuration not stated) gave an IC50 greater than 99 µM.

Take `Cc1ccccc1CC(=O)Nc1cncc2ccccc12`: the IC50 stood at 29.5 µM.

Turning to `CNC(=O)CN1CC(C)(C(=O)Nc2cncc3ccccc23)c2cc(Cl)ccc2C1=O` (configuration not stated), the IC50 is 0.128 µM and 0.214 µM.

The compound `O=C(Cc1cccc(Cl)c1)Nc1nnc2ccccn12` showed an IC50 greater than 99.5 µM.

On to `O=C1CCCCN1c1ccc(N(Cc2ccccc2)C(=O)Cc2[nH]nc3ccccc23)cc1`, for which the IC50 is 39.4 µM.

Take `C[n+]1ccn(CCCc2cccc(Cl)c2)c1C#N`: the IC50 was greater than 99.5 µM.

`O=C(Nc1ccccc1)[C@@H](c1ccccc1)N1Cc2ccccc2C1=O` (stereo in doubt) returned an IC50 greater than 99.5 µM.

Compound `O=C(/C=C/c1ccccc1)N1CCN(S(=O)(=O)c2cccc(F)c2)CC1` gave an IC50 greater than 99.5 µM.

As for `O=C(NCCc1cccc(F)c1)C(c1cccnc1)N(C(=O)c1cocn1)C1COc2cc(F)ccc21` (configuration not stated), the IC50 was greater than 99.5 µM.

The compound `CC1CN(C(=O)CC2(C(=O)Nc3cncc4ccccc34)CCOc3ccc(Cl)cc32)CCN1CCO` (configuration not stated) returned an IC50 greater than 99.5 µM.

Compound `O=C(Cc1cccc(Cl)c1)Nc1cnc2n1CCCC2` yielded an IC50 of 93.8 µM.

`Cc1cc(C(=O)N2CCC(C3CCNC3)CC2)cc(C)c1OC(F)F` (configuration not stated): the IC50 is greater than 99.5 µM.

Turning to `CC1(C)OB(c2cnc(C#N)nc2)OC1(C)C`, the half-inhibitory concentration (IC50) was greater than 99.5 µM.

For `O=C(Cc1cc(Cl)cc(Nc2ccc(-c3ccccn3)cc2)c1)Nc1cncc2ccccc12`, the IC50 came to 1.67 µM.

Compound `CC(C)(C)c1ccc(N(C(=O)c2cscn2)C(C(=O)NCCc2cccc(F)c2)c2cccnc2)cc1` (configuration not stated) gave an IC50 of 0.891 µM.

On to `O=C(c1cc(=O)[nH]c2ccccc12)N1CCN(Cc2ccccc2)CC1`, for which the IC50 amounted to 8.76 µM.

As to `CC1(C)Nc2ccccc2C1NC(=O)Cc1cccc(Cl)c1` (configuration not stated), the IC50 is greater than 99.5 µM.

Regarding `O=C(Nc1cncc2ccccc12)[C@H]1CCNc2cc(Cl)c(Cl)cc21` (stereo in doubt), the IC50 was greater than 99.5 µM.

Consider `O=C(Cc1cc(Cl)cc(N(C(=O)c2ccccc2)C2CCNCC2)c1)Nc1cncc2ccccc12`, for which the IC50 turned out to be 2.14 µM.

`COC(=O)[C@@H]1C[C@H](NC(=O)C(c2cccnc2)N(C(=O)c2cocn2)c2ccc(C(C)(C)C)cc2)CN1C(=O)OC(C)(C)C` (stereo in doubt) registered an IC50 of 2.66 µM.

Compound `Cc1ccncc1N1CCC(c2cccc(Cl)c2)S1(=O)=O` (configuration not stated) showed an IC50 of 85 µM.

Regarding `CCCCCC(=O)SCCNC(=O)CCNC(=O)[C@H](O)C(C)(C)COP(=O)(O)OP(=O)(O)OC[C@H]1O[C@@H](n2cnc3c(N)ncnc32)[C@H](O)[C@@H]1OP(=O)(O)O` (stereo in doubt), the IC50 is 46.1 µM and 85.1 µM.

`Cc1ccc(Cl)cc1N1CCN(c2cc(Cl)cc(CC(=O)Nc3cncc4ccccc34)c2)CC1` yielded an IC50 of 3.37 µM.

Regarding `O=C(Cc1cc(Cl)cc(Nc2ccc(F)c(F)c2Br)c1)Nc1cncc2ccccc12`, the IC50 was found to be 1.94 µM.

In turn, `O=C(Nc1cncc2ccccc12)N(CCC1CCCCC1)c1cccc(Cl)c1` returned a 50% inhibitory concentration (IC50) of 0.261 µM.

`O=C(Cc1cc(Cl)cc(Nc2cc(Cl)cnc2Br)c1)Nc1cncc2ccccc12` came in with an IC50 of 1.99 µM.

Compound `CN(C)S(=O)(=O)c1cccc(C(=O)Nc2c(-c3ccccc3)nc3sccn23)c1` displayed an IC50 of 0.975 µM.

In turn, `COCc1ccc2cncc(NC(=O)Cc3cccc(Cl)c3)c2c1` registered an IC50 of 2.21 µM.

The compound `Cc1ccncc1CC(=O)Nc1cccc(Cl)c1` gave an IC50 of 29.9 µM.

On to `O=C(Cc1cccc(Cl)c1)Nc1cncc2ccc(OCCN3CCCC3)cc12`, for which the IC50 stood at 1.13 µM.

In turn, `O=C(Nc1cncc2ccccc12)C1CN(S(=O)(=O)CC2CC2(F)F)Cc2ccc(Cl)cc21` (configuration not stated) had an IC50 of 0.159 µM.

`COc1cccc(CNc2cc(Cl)cc(CC(=O)Nc3cncc4ccccc34)c2)c1OC` had an IC50 of 2.48 µM.

For the compound `Cc1ccccc1C(C)NC(C)C(=O)Nc1ccc2[nH]c(=O)[nH]c2c1` (configuration not stated), the IC50 was greater than 99.5 µM.

In turn, `O=C(Cc1cc(Cl)cc(Nc2ccncc2I)c1)Nc1cncc2ccccc12` returned an IC50 of 1.68 µM.

In the case of `CC(NC(=O)CCl)c1cc(Cl)cc(-c2ccc(S(N)(=O)=O)cc2)c1` (configuration not stated), the IC50 was 0.466 µM.

With `O=C(Cc1cc(Cl)cc(Nc2nc(-c3ccc(Cl)c(Cl)c3)cs2)c1)Nc1cncc2ccccc12`, the IC50 was 2.46 µM.

The compound `CC(=O)NC(C)c1cc(Cl)cc(-c2ccc(S(N)(=O)=O)cc2)c1` (configuration not stated) returned a half-maximal inhibitory concentration (IC50) greater than 99.5 µM.

`O=C(NCc1ccccc1)[C@H]1CN(C(=O)CCl)CCN1S(=O)(=O)c1ccsc1` (stereo in doubt) came in with an IC50 of 0.621 µM.

On to `CCOC(=O)c1c(COc2cc(Cl)cc(CC(=O)Nc3cnccc3C)c2)oc2ccccc12`, for which the IC50 was greater than 99.5 µM.

With `COCc1ccccc1CNS(=O)(=O)c1c(C)sc(C)c1C`, the IC50 is greater than 99.5 µM.

For the origin of these results see the COVID Moonshot data (paper PMC7615835).
